SMILES strings stand for the structures.

The record followed here is US6521407B1, “Methods for determining chemosensitivity of cancer cells based upon expression of negative and positive signal transduction factors” (TheRyte Limited, priority 1998, dated 2003).

Assay type in all cases: cell-based, human
The test system of one assay is A431. Kind of assay: Clonogenic cell survival assay (D0.1), A431. The following applies: A431, p53 mutant, undetectable p21; for Absolute D0.1: dose reducing clonogenic survival to 10% of control, 14 days exposure. The method, then: (§1) The growth characteristics clonogenic assay procedures of the 11 human in vitro cell lines used in this analysis have already been reported e.g. in Britten R. A. and Warenius H., Eur. J. Canc. 29A, 1315-1320 (1993). The cell lines are listed, with their histological classification in Table 4. All are well established; many having been growing in vitro for several years. Cell lines were either donations or purchased by our laboratories. On receipt all were grown for 5 passages to provide sufficient cells for batch storage in liquid nitrogen. During this period contamination was excluded by at least one passage in antibiotic free medium and mycoplasma testing was carried out on all lines. For clonogenic assays, cells were taken from a designated primary liquid nitrogen batch and grown for 3-6 passages until there were sufficient well-growing cells. Further batches from these cells were frozen in liquid nitrogen. Cells were routinely maintained in DMEM medium. All lines were supplemented with 10% heat-inactivated foetal calf serum (HIFCS). […] The D0.1 values were obtained by several independent clonogenic assays and the data fitted by linear regression analysis. The clonogenic assays were repeated until statistically satisfactory fits were achieved on linear regression. The D0.1 values were obtained by interpolation of the linear regression lines. The cytotoxic drug D0.1 values have been normalised and expressed as relative D0.1 values, to enable the relative sensitivity of each cell to each of the drugs to be compared.
(§2) In order to assay CDDP sensitivity 10^2-10^5 cells were plated in 3 ml of Ham's F12 medium supplemented with 10% FCS in 6 well plates and incubated at 37° C. in an atmosphere of 5% CO2 for 8 hours. […] The medium was then removed, the cells were fixed in 70% ethanol and stained with 10% Giemsa and colonies of >100 cells counted. […] CDDP cell survival was determined at the 10% clonogenic cell survival level (D0.1) by interpolation of the fitted regression curve. […]

A further assay relates to HT29. The experiment in a line: Clonogenic cell survival assay (D0.1), HT29. The conditions noted are these: HT29, p53 mutant, undetectable p21; for Absolute D0.1: dose reducing clonogenic survival to 10% of control, 14 days exposure. Here is the method:
as §1, §2

For another assay, the system named is MOR. The experiment in a line: Clonogenic cell survival assay (D0.1), MOR. The conditions noted are these: p53 mutant. Here is the method: (§3) The growth characteristics clonogenic assay procedures of the 11 human in vitro cell lines used in this analysis have already been reported e.g. in Britten R. A. and Warenius H., Eur. J. Canc. 29A, 1315-1320 (1993). The cell lines are listed, with their histological classification in Table 4. All are well established; many having been growing in vitro for several years. Cell lines were either donations or purchased by our laboratories. On receipt all were grown for 5 passages to provide sufficient cells for batch storage in liquid nitrogen. During this period contamination was excluded by at least one passage in antibiotic free medium and mycoplasma testing was carried out on all lines. For clonogenic assays, cells were taken from a designated primary liquid nitrogen batch and grown for 3-6 passages until there were sufficient well-growing cells. Further batches from these cells were frozen in liquid nitrogen. Cells were routinely maintained in DMEM medium. All lines were supplemented with 10% heat-inactivated foetal calf serum (HIFCS). […]
(§4) In order to assay CDDP sensitivity 10^2-10^5 cells were plated in 3 ml of Ham's F12 medium supplemented with 10% FCS in 6 well plates and incubated at 37° C. in an atmosphere of 5% CO2 for 8 hours. […] The medium was then removed, the cells were fixed in 70% ethanol and stained with 10% Giemsa and colonies of >100 cells counted.

A further assay concerns RT112. The experiment in a line: Clonogenic cell survival assay (D0.1), RT112. The following applies: RT112, p53 mutant, undetectable p21; for Absolute D0.1: dose reducing clonogenic survival to 10% of control, 14 days exposure. The method, then:
as §1, §2

For the next assay, the system named is MEL2. Kind of assay: Clonogenic cell survival assay (D0.1), MEL2. The following applies: MEL2, p53 mutant, undetectable p21; for Absolute D0.1: dose reducing clonogenic survival to 10% of control, 14 days exposure. The method, then: as §1, §2
The next assay relates to 2780. Kind of assay: Clonogenic cell survival assay (D0.1), 2780. The conditions noted are these: 2780, p53 wild-type, detectable p21; for Absolute D0.1: dose reducing clonogenic survival to 10% of control, 14 days exposure. Here is the method: as §1, §2
The test system of another assay is I407. Kind of assay: Clonogenic cell survival assay (D0.1), I407. The conditions noted are these: 1407 (I407), p53 wild-type, detectable p21; for Absolute D0.1: dose reducing clonogenic survival to 10% of control, 14 days exposure. The method, then:
as §1, §2

A further assay deals with HRT18. Kind of assay: Clonogenic cell survival assay (D0.1), HRT18. The following applies: HRT18, p53 wild-type, detectable p21; for Absolute D0.1: dose reducing clonogenic survival to 10% of control, 14 days exposure. The method, then: as §1, §2
For another assay, the system named is MGHU1. The experiment in a line: Clonogenic cell survival assay (D0.1), MGHU1. The conditions noted are these: MGHU1, p53 wild-type, detectable p21; for Absolute D0.1: dose reducing clonogenic survival to 10% of control, 14 days exposure. The method, then: as §1, §2
The test system of a further assay is CORL23. Kind of assay: Clonogenic cell survival assay (D0.1), CORL23. The conditions noted are these: CORL23, p53 wild-type, detectable p21; for Absolute D0.1: dose reducing clonogenic survival to 10% of control, 14 days exposure. The method, then:
as §1, §2

The next assay deals with OAW42. Kind of assay: Clonogenic cell survival assay (D0.1), OAW42. The following applies: OAW42, p53 wild-type, detectable p21. Here is the method:
as §3, §4

[1] abbreviates: absolute D0.1 divided by mean D0.1 of the drug.

With `N.N.[Cl][Pt][Cl]` [CDDP, cis-diamminedichloroplatinum], the “Relative D0.1” value with A431 (setting [1]) is 0.765; in the assay on HT29 (setting [1]), 1.58; in the assay with MOR (undetectable p21, absolute D0.1 divided by mean D0.1 of the drug), 1.573; with RT112 (setting [1]), 0.593; in the assay with MEL2 (setting [1]), 1.143; in the assay on 2780 (setting [1]) it was 0.637. The “Relative D0.1” value with I407 (setting [1]) was 0.15; with HRT18 (setting [1]) it was 2.16; in the assay with MGHU1 (setting [1]), 1.235; in the assay with CORL23 (setting [1]), 0.845; in the assay on OAW42 (setting [1]), 0.27. The “Absolute D0.1” value with A431 worked out at 0.306; with HT29, 0.632; in the assay with MOR (undetectable p21, dose reducing clonogenic survival to 10% of control, 14 days exposure), 0.629; in the assay with RT112 it was 0.237; in the assay with MEL2, 0.457; in the assay with 2780, 0.255. Also, the “Absolute D0.1” value in the assay with I407 is given as 0.06; in the assay on HRT18 it was 0.864; with MGHU1, 0.4494; with CORL23, 0.338; in the assay with OAW42 (dose reducing clonogenic survival to 10% of control, 14 days exposure), 0.108.
Take `CC(=O)O[C@H]1C(=O)[C@@]2(C)[C@H]([C@H](OC(=O)c3ccccc3)[C@]3(O)C[C@H](OC(=O)[C@H](O)[C@@H](NC(=O)c4ccccc4)c4ccccc4)C(C)=C1C3(C)C)[C@]1(OC(C)=O)CO[C@@H]1C[C@@H]2O` [Paclitaxel (TAXOL), Paclitaxel]: the “Absolute D0.1” value with A431 was found to be 0.823; with HT29, 1.106; in the assay on RT112, 1.523; with MEL2 it was 0.57; in the assay on 2780 it was 2.113; with I407 it was 1.504. Moreover, the “Absolute D0.1” value in the assay with HRT18 is reported as 10.415; with MGHU1 it was 1.144; with CORL23, 0.497.
